Experiments:
α-L-fucosidase = biological target: T1, α-L-fucosidase (Bos taurus, UniProt Q2KIM0); assay: Glycosidase inhibition: α-L-fucosidase; format: biochemical, Bovine kidney; conditions: 1 mg/ml; pH 5.5, 20° C
T1 construct: purchased Sigma; host or cells: bovine kidney
T1 sequence (Q2KIM0 23-468): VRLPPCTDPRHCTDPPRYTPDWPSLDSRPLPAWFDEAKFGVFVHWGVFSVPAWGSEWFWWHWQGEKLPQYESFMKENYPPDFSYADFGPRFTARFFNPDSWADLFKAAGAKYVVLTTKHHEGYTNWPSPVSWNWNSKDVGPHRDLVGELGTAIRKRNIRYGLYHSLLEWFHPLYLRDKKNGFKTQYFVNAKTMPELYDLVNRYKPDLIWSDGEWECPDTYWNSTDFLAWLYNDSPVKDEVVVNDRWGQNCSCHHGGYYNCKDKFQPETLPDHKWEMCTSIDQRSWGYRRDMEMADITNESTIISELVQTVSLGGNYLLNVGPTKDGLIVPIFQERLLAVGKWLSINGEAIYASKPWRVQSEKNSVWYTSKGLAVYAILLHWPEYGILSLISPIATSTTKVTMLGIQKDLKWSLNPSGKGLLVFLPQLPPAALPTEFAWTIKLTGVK
Procedure: (§1) All enzymes were purchased from Sigma, as were the appropriate p-nitrophenyl substrates. Assays were carried out in microtitre plates. Enzymes were assayed in 0.1M citric acid/0.2M di-sodium hydrogen phosphate (McIlvaine) buffers at the optimum pH for the enzyme. All assays were carried out at 20° C. For screening assays the incubation assay consisted of 10 μl of enzyme solution, 10 μl of inhibitor solution (made up in water at 5 mM) and 50 μl of the appropriate 5 mM p-nitrophenyl substrate (3.57 mM final conc.) made up in McIlvaine buffer at the optimum pH for the enzyme.
(§2) The reactions were stopped with 0.4M glycine (pH 10.4) during the exponential phase of the reaction, which was determined at the beginning of the assay using blanks with water, which were incubated for a range of time periods to measure the reaction rate using 5 mM substrate solution. Endpoint absorbances were read at 405 nm with a Bio-rad microtitre plate reader (Benchmark). Water was substituted for the inhibitors in the blanks.

α-D-galactosidase = biological target: T2, α-D-galactosidase (Coffea arabica, UniProt Q42656); assay: Glycosidase inhibition: α-D-galactosidase; format: biochemical, Green coffee beans (Coffea sp.); conditions: 1 mg/ml; pH 6.5, 20° C
T2 construct: purchased Sigma
Procedure: as §1, with “Inhibition of the N-linked glycan trimming enzymes alpha-Glucosidases I and II or alpha-Mannosidases I and II are thought to be related to the anti-viral activity of castanospermine (Compound 104) and 1-deoxynojirimycin (Compound 193). […] All enzymes” for “All enzymes”
as §2

[1] = tested on: N-acetyl-β-D-glucosaminidase; assay: Glycosidase inhibition: N-acetyl-β-D-glucosaminidase; format: biochemical, Bovine kidney; conditions: 1 mg/ml; pH 4.25, 20° C
Procedure: as §1, with “Inhibition of the N-linked glycan trimming enzymes alpha-Glucosidases I and II or alpha-Mannosidases I and II are thought to be related to the anti-viral activity of castanospermine (Compound 104) and 1-deoxynojirimycin (Compound 193). […] All enzymes” for “All enzymes”
as §2

Naringinase = assay: Glycosidase inhibition: Naringinase; format: biochemical, Penecillium decumbens; conditions: 1 mg/ml; pH 4.0, 20° C
Procedure: as §1, with “Inhibition of the N-linked glycan trimming enzymes alpha-Glucosidases I and II or alpha-Mannosidases I and II are thought to be related to the anti-viral activity of castanospermine (Compound 104) and 1-deoxynojirimycin (Compound 193). […] All enzymes” for “All enzymes”
as §2

α-D-mannosidase = biological target: T3, α-D-mannosidase (Canavalia ensiformis, UniProt C0HJB3); assay: Glycosidase inhibition: α-D-mannosidase; format: biochemical, Jack beans (Canavalia ensiformis); conditions: 1 mg/ml; pH 4.5, 20° C
T3 construct: purchased Sigma
T3 sequence (C0HJB3 1-981): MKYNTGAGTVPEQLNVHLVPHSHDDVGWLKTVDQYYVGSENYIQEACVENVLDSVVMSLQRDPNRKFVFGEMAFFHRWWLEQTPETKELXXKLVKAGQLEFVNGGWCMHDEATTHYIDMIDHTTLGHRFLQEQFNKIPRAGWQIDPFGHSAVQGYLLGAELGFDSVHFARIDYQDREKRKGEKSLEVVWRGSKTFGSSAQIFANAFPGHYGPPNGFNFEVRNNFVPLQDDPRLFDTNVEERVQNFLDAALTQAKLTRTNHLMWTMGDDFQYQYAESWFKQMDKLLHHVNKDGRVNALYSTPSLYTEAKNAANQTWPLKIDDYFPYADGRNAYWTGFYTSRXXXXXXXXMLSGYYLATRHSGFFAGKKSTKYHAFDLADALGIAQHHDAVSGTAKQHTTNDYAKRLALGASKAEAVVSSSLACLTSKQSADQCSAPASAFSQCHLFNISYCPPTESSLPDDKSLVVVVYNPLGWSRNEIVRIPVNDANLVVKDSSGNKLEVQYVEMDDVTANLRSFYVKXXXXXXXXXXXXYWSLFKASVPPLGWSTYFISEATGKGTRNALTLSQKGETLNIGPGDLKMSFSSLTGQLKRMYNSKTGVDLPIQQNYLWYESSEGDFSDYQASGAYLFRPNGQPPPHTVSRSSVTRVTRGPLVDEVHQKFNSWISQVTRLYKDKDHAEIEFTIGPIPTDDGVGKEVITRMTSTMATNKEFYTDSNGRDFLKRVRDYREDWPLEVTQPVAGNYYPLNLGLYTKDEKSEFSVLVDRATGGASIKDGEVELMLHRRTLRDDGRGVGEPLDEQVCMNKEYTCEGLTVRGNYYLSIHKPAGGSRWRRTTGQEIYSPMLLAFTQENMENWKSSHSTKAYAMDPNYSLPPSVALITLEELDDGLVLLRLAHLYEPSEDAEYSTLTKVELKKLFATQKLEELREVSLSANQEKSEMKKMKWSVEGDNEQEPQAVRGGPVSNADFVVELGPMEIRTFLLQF
Procedure: as §1, with “Inhibition of the N-linked glycan trimming enzymes alpha-Glucosidases I and II or alpha-Mannosidases I and II are thought to be related to the anti-viral activity of castanospermine (Compound 104) and 1-deoxynojirimycin (Compound 193). […] All enzymes” for “All enzymes”
as §2

α-D-glucosidase [2] = biological target: T4, α-D-glucosidase (Saccharomyces cerevisiae, UniProt P53341); assay: Glycosidase inhibition: α-D-glucosidase (yeast); format: biochemical, Saccharomyces cerevisiae (Baker's yeast); conditions: 1 mg/ml; pH 6.0, 20° C
T4 construct: purchased Sigma
Procedure: as §1, with “Inhibition of the N-linked glycan trimming enzymes alpha-Glucosidases I and II or alpha-Mannosidases I and II are thought to be related to the anti-viral activity of castanospermine (Compound 104) and 1-deoxynojirimycin (Compound 193). […] All enzymes” for “All enzymes”
as §2

β-D-galactosidase = assay: Glycosidase inhibition: β-D-galactosidase; format: biochemical, Bovine liver; conditions: 1 mg/ml; pH 7.3, 20° C
Procedure: as §1, with “Inhibition of the N-linked glycan trimming enzymes alpha-Glucosidases I and II or alpha-Mannosidases I and II are thought to be related to the anti-viral activity of castanospermine (Compound 104) and 1-deoxynojirimycin (Compound 193). […] All enzymes” for “All enzymes”
as §2

α-D-glucosidase [3] = biological target: T5, α-D-glucosidase (Oryza sativa subsp. japonica, UniProt Q653V7); assay: Glycosidase inhibition: α-D-glucosidase (rice); format: biochemical, rice (Oryza sativa); conditions: 1 mg/ml; pH 6.0, 20° C
T5 construct: purchased Sigma
Procedure: as §1, with “Inhibition of the N-linked glycan trimming enzymes alpha-Glucosidases I and II or alpha-Mannosidases I and II are thought to be related to the anti-viral activity of castanospermine (Compound 104) and 1-deoxynojirimycin (Compound 193). […] All enzymes” for “All enzymes”
as §2

β-D-glucosidase = assay: Glycosidase inhibition: β-D-glucosidase; format: biochemical, Almonds (Prunus sp.); conditions: 1 mg/ml; pH 5.0, 20° C
Procedure: as §1, with “Inhibition of the N-linked glycan trimming enzymes alpha-Glucosidases I and II or alpha-Mannosidases I and II are thought to be related to the anti-viral activity of castanospermine (Compound 104) and 1-deoxynojirimycin (Compound 193). […] All enzymes” for “All enzymes”
as §2

α-D-glucosidase [4] = assay: Glycosidase inhibition: α-D-glucosidase (Bacillus); format: biochemical, Bacillus stearothermophilus; conditions: 1 mg/ml; pH 6.0, 20° C
Procedure: as §1, with “Inhibition of the N-linked glycan trimming enzymes alpha-Glucosidases I and II or alpha-Mannosidases I and II are thought to be related to the anti-viral activity of castanospermine (Compound 104) and 1-deoxynojirimycin (Compound 193). […] All enzymes” for “All enzymes”
as §2

HCV = assay: Cell-based HCV infection NS3 protease FRET assay in DMSO-Huh7 cells; set-up: species or system hepatitis C virus (HCV); conditions: DMSO-Huh7 cells infected with HCV at 0.05 ffu/cell; HCV NS3 protein levels by FRET, day 6 p.i.

T5 sequence (Q653V7 34-885): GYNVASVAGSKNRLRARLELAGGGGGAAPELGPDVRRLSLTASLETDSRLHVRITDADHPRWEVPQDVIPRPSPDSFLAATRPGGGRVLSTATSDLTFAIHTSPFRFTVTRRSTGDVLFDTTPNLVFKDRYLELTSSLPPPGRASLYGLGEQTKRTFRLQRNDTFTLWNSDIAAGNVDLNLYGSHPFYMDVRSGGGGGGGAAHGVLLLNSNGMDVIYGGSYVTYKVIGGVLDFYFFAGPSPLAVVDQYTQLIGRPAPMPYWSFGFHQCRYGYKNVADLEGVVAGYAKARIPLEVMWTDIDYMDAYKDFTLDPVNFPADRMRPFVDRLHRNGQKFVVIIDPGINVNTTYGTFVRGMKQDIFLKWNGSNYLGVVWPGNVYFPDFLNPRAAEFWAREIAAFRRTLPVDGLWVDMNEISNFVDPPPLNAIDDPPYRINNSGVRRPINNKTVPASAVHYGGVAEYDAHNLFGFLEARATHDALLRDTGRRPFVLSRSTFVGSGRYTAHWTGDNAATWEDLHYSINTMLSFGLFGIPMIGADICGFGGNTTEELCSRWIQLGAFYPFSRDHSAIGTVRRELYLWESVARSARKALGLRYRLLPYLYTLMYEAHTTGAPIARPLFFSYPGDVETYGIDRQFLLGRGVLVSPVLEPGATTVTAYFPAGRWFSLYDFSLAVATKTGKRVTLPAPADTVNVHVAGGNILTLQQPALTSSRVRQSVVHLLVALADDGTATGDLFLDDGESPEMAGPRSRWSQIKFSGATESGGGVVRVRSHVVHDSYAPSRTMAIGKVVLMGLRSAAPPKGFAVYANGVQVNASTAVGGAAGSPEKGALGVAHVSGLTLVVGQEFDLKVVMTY
T4 sequence (P53341 whole entry): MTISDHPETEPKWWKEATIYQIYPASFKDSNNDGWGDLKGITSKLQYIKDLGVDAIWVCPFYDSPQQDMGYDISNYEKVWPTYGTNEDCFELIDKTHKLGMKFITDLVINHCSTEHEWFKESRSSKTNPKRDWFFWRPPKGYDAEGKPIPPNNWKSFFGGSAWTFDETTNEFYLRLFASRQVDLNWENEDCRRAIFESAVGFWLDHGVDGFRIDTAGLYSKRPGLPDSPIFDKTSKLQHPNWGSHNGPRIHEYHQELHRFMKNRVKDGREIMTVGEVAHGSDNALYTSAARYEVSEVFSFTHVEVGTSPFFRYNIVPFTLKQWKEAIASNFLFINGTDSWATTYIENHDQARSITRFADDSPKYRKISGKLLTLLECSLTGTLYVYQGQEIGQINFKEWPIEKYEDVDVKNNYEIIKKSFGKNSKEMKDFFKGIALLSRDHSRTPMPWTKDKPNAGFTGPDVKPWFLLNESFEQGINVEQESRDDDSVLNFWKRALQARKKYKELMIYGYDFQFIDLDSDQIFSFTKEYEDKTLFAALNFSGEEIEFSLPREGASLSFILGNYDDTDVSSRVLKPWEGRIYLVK
T2 sequence (Q42656 16-378): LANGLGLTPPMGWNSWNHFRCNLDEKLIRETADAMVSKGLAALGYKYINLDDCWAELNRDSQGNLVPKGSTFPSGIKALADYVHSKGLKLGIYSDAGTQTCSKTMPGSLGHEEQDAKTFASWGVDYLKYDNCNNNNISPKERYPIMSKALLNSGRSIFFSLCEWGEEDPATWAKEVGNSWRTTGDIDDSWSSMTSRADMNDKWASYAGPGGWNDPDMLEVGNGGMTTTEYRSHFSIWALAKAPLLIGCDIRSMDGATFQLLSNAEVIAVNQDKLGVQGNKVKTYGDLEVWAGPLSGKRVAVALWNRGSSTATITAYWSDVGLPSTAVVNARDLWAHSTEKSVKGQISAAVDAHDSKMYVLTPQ

OC[C@H]1NC[C@H](O)[C@@H](O)[C@@H]1O [Compound 193, 1-deoxynojirimycin, reference compound]
% inhibition α-fucosidase (α-L-fucosidase): 0%
% inhibition α-galactosidase (α-D-galactosidase): 0%
% inhibition N-acetyl-β-gluc [1]: 0%
% inhibition Naringinase (Naringinase): 0%
% inhibition α-mannosidase (α-D-mannosidase): 0%
% inhibition α-gluc (yeast) (α-D-glucosidase [2]): 35%
% inhibition β-galactosidase (β-D-galactosidase): 0%
% inhibition α-gluc (rice) (α-D-glucosidase [3]): 100%
% inhibition β-glucosidase (β-D-glucosidase): 64%
% inhibition α-gluc (Bacillus) (α-D-glucosidase [4]): 100%

CCCCCCCCCN1C[C@@H](O)[C@@H](O)[C@H](O)[C@H](O)C1 [Compound 794, (3R,4R,5R,6R)-1-nonylazepane-3,4,5,6-tetraol]
Ave % inhibition (HCV): ++++ (++++: 60-79%)

OC[C@@H](O)[C@@H]1[C@H](O)[C@H](O)CN1Cc1ccccc1 [Compound 799, (2R,3S,4R)-1-benzyl-2-((S)-1,2-dihydroxyethyl)pyrrolidine-3,4-diol]
Ave % inhibition (HCV): + (+: ≦19%)

(1S,2S,3S,6R,7R,7aR)-1,6,7-trihydroxy-3-(hydroxymethyl)hexahydro-1H-pyrrolizin-2-yl methanesulfonate [Compound 635]
Ave % inhibition (HCV): ++ (++: 20-39%)

(3R,5S)-5-(acetamidomethyl)-1-butylpyrrolidin-3-yl acetate [Compound 546]
Ave % inhibition (HCV): ++ (++: 20-39%)

(3R,5S)-5-(acetamidomethyl)-1-nonylpyrrolidin-3-yl acetate [Compound 547]
Ave % inhibition (HCV): ++++ (++++: 60-79%)

((2S,4S)-4-acetamido-1-nonylpyrrolidin-2-yl)methyl acetate [Compound 332]
Ave % inhibition (HCV): +++++ (+++++: ≧80%)
